# Results: patent publication US8658573B2, “Photo-generated carbohydrate arrays and the rapid identification of pathogen-specific antigens and antibodies” (priority 2006, dated 2014)
# System: rabbit anti-B. anthracis spore polyclonal IgG antibodies
# Assay type: binding
Structure (SMILES),"IgG signal detected by carbohydrate arrays (n = 3), Mean",recognition of surface-bound carbohydrate by the antibody (FIG. 2A/2B)
CO[C@H]1O[C@H](CO)[C@@H](O)[C@H](O[C@H]2O[C@H](CO)[C@H](O)[C@H](O)[C@H]2O[C@@H]2O[C@@H](C)[C@H](O)[C@@H](O)[C@H]2O)[C@H]1NC(C)=O [compound 23],1.01,–
"COC(=O)CCCCCO[C@@H]1O[C@@H](C)[C@H](O)[C@@H](O)[C@H]1O[C@@H]1O[C@@H](C)[C@H](O)[C@@H](O[C@@H]2O[C@H](C)[C@@H](NC(=O)CC(C)(C)O)[C@H](O)[C@H]2OC)[C@H]1O [Id# 3, 5-(Methoxycarbonyl)-pentyl 4-(3-hydroxy-3-methylbutanamido)-2-O-methyl-4,6-dideoxy-β-D-glucopyranosyl-(1→3)-α-L-rhamnopyranosyl-(1→2)-α-L-rhamnopyranoside]",–,recognized by the antibody
CO[C@H]1O[C@H](CO)[C@H](O)[C@H](O)[C@H]1O[C@@H]1O[C@@H](C)[C@H](O)[C@@H](O[C@@H]2O[C@@H](C)[C@H](O)[C@@H](O[C@H]3O[C@H](CO)[C@@H](O)[C@H](O)[C@H]3NC(C)=O)[C@H]2O)[C@H]1O [compound 22],0.95,–
COC(=O)CCCCCO[C@@H]1O[C@@H](C)[C@H](O)[C@@H](O[C@@H]2O[C@H](C)[C@@H](NC(=O)CC(C)(C)O)[C@H](O)[C@H]2OC)[C@H]1O [compound 2],1.65,–
COC(=O)CCCCCO[C@@H]1O[C@@H](C)[C@H](O)[C@@H](O[C@@H]2O[C@@H](C)[C@H](O)[C@@H](O)[C@H]2O)[C@H]1O [compound 16],1.00,–
COC(=O)CCCCCO[C@@H]1O[C@@H](C)[C@H](O)[C@@H](O)[C@H]1O[C@@H]1O[C@@H](C)[C@H](O)[C@@H](O[C@@H]2O[C@@H](C)[C@H](O)[C@@H](O[C@@H]3O[C@H](C)[C@@H](NC(=O)CC(C)(C)O)[C@H](O)[C@H]3OC)[C@H]2O)[C@H]1O [compound 5],5.19,–
COC(=O)CCCCCO[C@H]1O[C@@H](C)[C@H](O)[C@@H](O)[C@H]1O[C@@H]1O[C@@H](C)[C@H](O)[C@@H](O)[C@H]1O [compound 19],0.98,–
COC1O[C@H](CO)[C@H](O)[C@H](O)[C@H]1O[C@@H]1O[C@@H](C)[C@H](O)[C@@H](O)[C@H]1O (some centres unmarked) [compound 21],1.08,–
CC(=O)N[C@@H](C=O)[C@@H](O)[C@@H](O)[C@H](O)CO [compound 11],1.03,–
COC(=O)CCCCCO[C@@H]1O[C@@H](C)[C@H](O)[C@@H](O)[C@H]1O[C@@H]1O[C@@H](C)[C@H](O)[C@@H](O)[C@H]1O [compound 18],1.26,–
COC(=O)CCCCCO[C@H]1O[C@@H](C)[C@H](O)[C@@H](O)[C@H]1O [compound 15],0.95,–
COC(=O)CCCCCO[C@@H]1O[C@@H](C)[C@H](O)[C@@H](O)[C@H]1O[C@@H]1O[C@@H](C)[C@H](O)[C@@H](O[C@@H]2O[C@@H](C)[C@H](O)[C@@H](O)[C@H]2O)[C@H]1O [compound 17],0.98,–
COC(=O)CCCCCO[C@@H]1O[C@@H](C)[C@H](O)[C@@H](O)[C@H]1O[C@@H]1O[C@@H](C)[C@H](O)[C@@H](O[C@@H]2O[C@H](C)[C@@H](NC(=O)CC(C)(C)O)[C@H](O)[C@H]2OC)[C@H]1O [compound 3],2.73,–
COC(=O)CCCCCO[C@@H]1O[C@H](C)[C@@H](NC(=O)CC(C)(C)O)[C@H](O)[C@H]1OC [compound 1],1.44,–
COC(=O)CCCCCO[C@@H]1O[C@@H](C)[C@H](O)[C@@H](O)[C@H]1O [compound 14],0.97,–
CO[C@@H]1O[C@@H](C)[C@H](O)[C@@H](O[C@@H]2O[C@@H](C)[C@H](O)[C@@H](O)[C@H]2O)[C@H]1O [compound 24],1.02,–
"COC(=O)CCCCCO[C@H]1O[C@@H](C)[C@H](O)[C@@H](O)[C@H]1O[C@@H]1O[C@@H](C)[C@H](O)[C@@H](O[C@@H]2O[C@@H](C)[C@H](O)[C@@H](O[C@@H]3O[C@H](C)[C@@H](NC(=O)CC(C)(C)O)[C@H](O)[C@H]3OC)[C@H]2O)[C@H]1O [Id# 4, 5-(Methoxycarbonyl)-pentyl 4-(3-hydroxy-3-methylbutanamido)-2-O-methyl-4,6-dideoxy-β-D-glucopyranosyl-(1→3)-α-L-rhamnopyranoyl-(1→3)-α-L-rhamnopyranosyl-(1→2)-β-L-rhamnopyranoside]",–,recognized by the antibody
"COC(=O)CCCCCO[C@@H]1O[C@@H](C)[C@H](O)[C@@H](O)[C@H]1O[C@@H]1O[C@@H](C)[C@H](O)[C@@H](O[C@@H]2O[C@@H](C)[C@H](O)[C@@H](O[C@@H]3O[C@H](C)[C@@H](NC(=O)CC(C)(C)O)[C@H](O)[C@H]3OC)[C@H]2O)[C@H]1O [Id# 5, 5-(Methoxycarbonyl)-pentyl 4-(3-hydroxy-3-methylbutanamido)-2-O-methyl-4,6-dideoxy-β-D-glucopyranosyl-(1→3)-α-L-rhamnopyranoyl-(1→3)-α-L-rhamnopyranosyl-(1→2)-α-L-rhamnopyranoside]",–,recognized by the antibody
COC(=O)CCCCCO[C@H]1O[C@@H](C)[C@H](O)[C@@H](O)[C@H]1O[C@@H]1O[C@@H](C)[C@H](O)[C@@H](O[C@@H]2O[C@@H](C)[C@H](O)[C@@H](O)[C@H]2O)[C@H]1O [compound 20],0.95,–
COC(=O)CCCCCO[C@H]1O[C@@H](C)[C@H](O)[C@@H](O)[C@H]1O[C@@H]1O[C@@H](C)[C@H](O)[C@@H](O[C@@H]2O[C@@H](C)[C@H](O)[C@@H](O[C@@H]3O[C@H](C)[C@@H](NC(=O)CC(C)(C)O)[C@H](O)[C@H]3OC)[C@H]2O)[C@H]1O [compound 4],5.16,–
